Test results: PubChem BioAssay (NCI)
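Five concentrations, 48 hours, 96-well plates. TGI is the concentration that stops growth completely.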

How the values were obtained:
Assay in all cases: inhibition of tumour cell growth, NCI panel, 48 h
786-0 renal = tested on: 786-0 renal
A498 renal = tested on: A498 renal
A549 NSCLC = tested on: A549 NSCLC
ACHN renal = tested on: ACHN renal
CAKI-1 renal = tested on: CAKI-1 renal
CCRF-CEM leukemia = tested on: CCRF-CEM leukemia
COLO 205 colon = tested on: COLO 205 colon
DLD-1 colon = tested on: DLD-1 colon
DMS 114 small cell lung = tested on: DMS 114 small cell lung
DMS 273 small cell lung = tested on: DMS 273 small cell lung
HCC-2998 colon = tested on: HCC-2998 colon
HCT-116 colon = tested on: HCT-116 colon
HCT-15 colon = tested on: HCT-15 colon
HL-60(TB) leukemia = tested on: HL-60(TB) leukemia
HOP-18 NSCLC = tested on: HOP-18 NSCLC
HOP-62 NSCLC = tested on: HOP-62 NSCLC
HOP-92 NSCLC = tested on: HOP-92 NSCLC
HT29 colon = tested on: HT29 colon
IGROV1 ovarian = tested on: IGROV1 ovarian
K-562 leukemia = tested on: K-562 leukemia
KM12 colon = tested on: KM12 colon
KM20L2 colon = tested on: KM20L2 colon
LOX IMVI melanoma = tested on: LOX IMVI melanoma
LXFL 529 NSCLC = tested on: LXFL 529 NSCLC
M14 melanoma = tested on: M14 melanoma
M19-MEL melanoma = tested on: M19-MEL melanoma
MALME-3M melanoma = tested on: MALME-3M melanoma
MOLT-4 leukemia = tested on: MOLT-4 leukemia
NCI-H23 lung = tested on: NCI-H23 lung
NCI-H460 lung = tested on: NCI-H460 lung
NCI-H522 lung = tested on: NCI-H522 lung
OVCAR-3 ovarian = tested on: OVCAR-3 ovarian
OVCAR-5 ovarian = tested on: OVCAR-5 ovarian
OVCAR-8 ovarian = tested on: OVCAR-8 ovarian
RXF-631 renal = tested on: RXF-631 renal
SF-268 CNS = tested on: SF-268 CNS
SF-295 CNS = tested on: SF-295 CNS
SF-539 CNS = tested on: SF-539 CNS
SK-MEL-2 melanoma = tested on: SK-MEL-2 melanoma
SK-MEL-28 melanoma = tested on: SK-MEL-28 melanoma
SK-MEL-5 melanoma = tested on: SK-MEL-5 melanoma
SK-OV-3 ovarian = tested on: SK-OV-3 ovarian
SN12C renal = tested on: SN12C renal
SNB-19 CNS = tested on: SNB-19 CNS
SNB-75 CNS = tested on: SNB-75 CNS
SNB-78 CNS = tested on: SNB-78 CNS
SR leukemia = tested on: SR leukemia
SW-620 colon = tested on: SW-620 colon
TK-10 renal = tested on: TK-10 renal
U251 CNS = tested on: U251 CNS
UACC-257 melanoma = tested on: UACC-257 melanoma
UACC-62 melanoma = tested on: UACC-62 melanoma
UO-31 renal = tested on: UO-31 renal
XF 498 CNS = tested on: XF 498 CNS
EKVX NSCLC = tested on: EKVX NSCLC
NCI-H226 lung = tested on: NCI-H226 lung
OVCAR-4 ovarian = tested on: OVCAR-4 ovarian
RPMI-8226 leukemia = tested on: RPMI-8226 leukemia
RXF 393 renal = tested on: RXF 393 renal

Structure (SMILES): CCOC(=O)NC(=O)c1cn(CC(=O)NCC(=O)NCC(=O)NCCCN2CCN(CCCNC(=O)CNC(=O)CNC(=O)Cn3cc(C(=O)NC(=O)OCC)c(=O)[nH]c3=O)CC2)c(=O)[nH]c1=O
- TGI (786-0 renal): > 100 µM
- TGI (A498 renal): > 100 µM
- TGI (A549 NSCLC): > 100 µM
- TGI (ACHN renal): > 100 µM
- TGI (CAKI-1 renal): > 100 µM
- TGI (CCRF-CEM leukemia): > 100 µM
- TGI (COLO 205 colon): > 100 µM
- TGI (DLD-1 colon): > 100 µM
- TGI (DMS 114 small cell lung): > 100 µM
- TGI (DMS 273 small cell lung): > 100 µM
- TGI (HCC-2998 colon): > 100 µM
- TGI (HCT-116 colon): > 100 µM
- TGI (HCT-15 colon): > 100 µM
- TGI (HL-60(TB) leukemia): > 100 µM
- TGI (HOP-18 NSCLC): > 100 µM
- TGI (HOP-62 NSCLC): > 100 µM
- TGI (HOP-92 NSCLC): > 100 µM
- TGI (HT29 colon): > 100 µM
- TGI (IGROV1 ovarian): > 100 µM
- TGI (K-562 leukemia): > 100 µM
- TGI (KM12 colon): > 100 µM
- TGI (KM20L2 colon): > 100 µM
- TGI (LOX IMVI melanoma): > 100 µM
- TGI (LXFL 529 NSCLC): > 100 µM
- TGI (M14 melanoma): > 100 µM
- TGI (M19-MEL melanoma): > 100 µM
- TGI (MALME-3M melanoma): > 100 µM
- TGI (MOLT-4 leukemia): > 100 µM
- TGI (NCI-H23 lung): > 100 µM
- TGI (NCI-H460 lung): > 100 µM
- TGI (NCI-H522 lung): > 100 µM
- TGI (OVCAR-3 ovarian): > 100 µM
- TGI (OVCAR-5 ovarian): > 100 µM
- TGI (OVCAR-8 ovarian): > 100 µM
- TGI (RXF-631 renal): > 100 µM
- TGI (SF-268 CNS): > 100 µM
- TGI (SF-295 CNS): > 100 µM
- TGI (SF-539 CNS): > 100 µM
- TGI (SK-MEL-2 melanoma): > 100 µM
- TGI (SK-MEL-28 melanoma): > 100 µM
- TGI (SK-MEL-5 melanoma): > 100 µM
- TGI (SK-OV-3 ovarian): > 100 µM
- TGI (SN12C renal): > 100 µM
- TGI (SNB-19 CNS): > 100 µM
- TGI (SNB-75 CNS): > 100 µM
- TGI (SNB-78 CNS): > 100 µM
- TGI (SR leukemia): > 100 µM
- TGI (SW-620 colon): > 100 µM
- TGI (TK-10 renal): > 100 µM
- TGI (U251 CNS): > 100 µM
- TGI (UACC-257 melanoma): > 100 µM
- TGI (UACC-62 melanoma): > 100 µM
- TGI (UO-31 renal): > 100 µM
- TGI (XF 498 CNS): > 100 µM

Structure (SMILES): CC1=C(C(=O)Nc2ccccc2C)C(c2ccc(Cl)c(Cl)c2)C(C(=O)Nc2ccccc2C)=C(C)N1
- TGI (786-0 renal): 67.3 µM
- TGI (A498 renal): 61.8 µM
- TGI (A549 NSCLC): > 100 µM
- TGI (ACHN renal): > 100 µM
- TGI (CAKI-1 renal): > 100 µM
- TGI (CCRF-CEM leukemia): 54.8 µM
- TGI (COLO 205 colon): 30 µM
- TGI (DLD-1 colon): > 100 µM
- TGI (DMS 114 small cell lung): 41 µM
- TGI (DMS 273 small cell lung): 41.1 µM
- TGI (EKVX NSCLC): > 100 µM
- TGI (HCC-2998 colon): 69.9 µM
- TGI (HCT-116 colon): 45.2 µM
- TGI (HCT-15 colon): 47.2 µM
- TGI (HL-60(TB) leukemia): 45.4 µM
- TGI (HOP-18 NSCLC): 69.4 µM
- TGI (HOP-62 NSCLC): 66.5 µM
- TGI (HOP-92 NSCLC): 33.4 µM
- TGI (HT29 colon): 57.7 µM
- TGI (IGROV1 ovarian): 93.1 µM
- TGI (K-562 leukemia): 79.8 µM
- TGI (KM12 colon): 87.4 µM
- TGI (KM20L2 colon): 34.8 µM
- TGI (LOX IMVI melanoma): 37.5 µM
- TGI (LXFL 529 NSCLC): 43.4 µM
- TGI (M14 melanoma): 35.3 µM
- TGI (M19-MEL melanoma): 45.2 µM
- TGI (MALME-3M melanoma): 52.3 µM
- TGI (MOLT-4 leukemia): 48.8 µM
- TGI (NCI-H226 lung): 43.8 µM
- TGI (NCI-H23 lung): 56.7 µM
- TGI (NCI-H460 lung): 36.4 µM
- TGI (NCI-H522 lung): 29.1 µM
- TGI (OVCAR-3 ovarian): 49.8 µM
- TGI (OVCAR-4 ovarian): > 100 µM
- TGI (OVCAR-5 ovarian): 53.5 µM
- TGI (OVCAR-8 ovarian): > 100 µM
- TGI (RPMI-8226 leukemia): 53.7 µM
- TGI (RXF 393 renal): 41.6 µM
- TGI (RXF-631 renal): 73.2 µM
- TGI (SF-268 CNS): 47.3 µM
- TGI (SF-295 CNS): 43.2 µM
- TGI (SF-539 CNS): 49.6 µM
- TGI (SK-MEL-2 melanoma): 33.6 µM
- TGI (SK-MEL-28 melanoma): 71.1 µM
- TGI (SK-MEL-5 melanoma): 31.8 µM
- TGI (SK-OV-3 ovarian): 81.4 µM
- TGI (SN12C renal): 47.2 µM
- TGI (SNB-19 CNS): > 100 µM
- TGI (SNB-75 CNS): > 100 µM
- TGI (SNB-78 CNS): > 100 µM
- TGI (SR leukemia): 36.8 µM
- TGI (SW-620 colon): > 100 µM
- TGI (TK-10 renal): > 100 µM
- TGI (U251 CNS): 40.5 µM
- TGI (UACC-257 melanoma): 50.7 µM
- TGI (UACC-62 melanoma): 39.2 µM
- TGI (UO-31 renal): > 100 µM
- TGI (XF 498 CNS): 56.4 µM

Structure (SMILES): CC(C)CS(=O)(=O)/C(=C(\c1ccc(Br)cc1)S(=O)(=O)CC(C)C)c1ccc(Br)cc1
- TGI (786-0 renal): > 100 µM
- TGI (A498 renal): 31.6 µM
- TGI (A549 NSCLC): > 100 µM
- TGI (ACHN renal): > 100 µM
- TGI (CAKI-1 renal): > 100 µM
- TGI (CCRF-CEM leukemia): > 100 µM
- TGI (COLO 205 colon): > 100 µM
- TGI (DLD-1 colon): > 100 µM
- TGI (DMS 273 small cell lung): > 100 µM
- TGI (EKVX NSCLC): > 100 µM
- TGI (HCC-2998 colon): > 100 µM
- TGI (HCT-116 colon): > 100 µM
- TGI (HCT-15 colon): > 100 µM
- TGI (HOP-18 NSCLC): > 100 µM
- TGI (HOP-62 NSCLC): > 100 µM
- TGI (HOP-92 NSCLC): > 100 µM
- TGI (HT29 colon): > 100 µM
- TGI (IGROV1 ovarian): 40.9 µM
- TGI (K-562 leukemia): > 100 µM
- TGI (KM12 colon): > 100 µM
- TGI (KM20L2 colon): > 100 µM
- TGI (LOX IMVI melanoma): > 100 µM
- TGI (LXFL 529 NSCLC): > 100 µM
- TGI (M14 melanoma): > 100 µM
- TGI (M19-MEL melanoma): > 100 µM
- TGI (MALME-3M melanoma): > 100 µM
- TGI (MOLT-4 leukemia): > 100 µM
- TGI (NCI-H226 lung): > 100 µM
- TGI (NCI-H23 lung): > 100 µM
- TGI (NCI-H460 lung): > 100 µM
- TGI (NCI-H522 lung): > 100 µM
- TGI (OVCAR-3 ovarian): > 100 µM
- TGI (OVCAR-4 ovarian): > 100 µM
- TGI (OVCAR-5 ovarian): > 100 µM
- TGI (OVCAR-8 ovarian): > 100 µM
- TGI (RPMI-8226 leukemia): > 100 µM
- TGI (RXF 393 renal): > 100 µM
- TGI (RXF-631 renal): > 100 µM
- TGI (SF-268 CNS): > 100 µM
- TGI (SF-295 CNS): > 100 µM
- TGI (SF-539 CNS): > 100 µM
- TGI (SK-MEL-2 melanoma): > 100 µM
- TGI (SK-MEL-28 melanoma): > 100 µM
- TGI (SK-MEL-5 melanoma): 2.8 µM
- TGI (SN12C renal): > 100 µM
- TGI (SNB-19 CNS): > 100 µM
- TGI (SNB-75 CNS): > 100 µM
- TGI (SNB-78 CNS): > 100 µM
- TGI (SR leukemia): > 100 µM
- TGI (SW-620 colon): > 100 µM
- TGI (TK-10 renal): > 100 µM
- TGI (U251 CNS): > 100 µM
- TGI (UACC-257 melanoma): > 100 µM
- TGI (UACC-62 melanoma): > 100 µM
- TGI (UO-31 renal): > 100 µM
- TGI (XF 498 CNS): > 100 µM
